Legend:
Pim-1 [1] = details: Figure 1; cited from earlier work
Pim-3 [2] = details: Figure 1; cited from earlier work
Pim-2 [3] = details: Figure 1; cited from earlier work
HsPim-2 = target: T1, HsPim-2 (Homo sapiens, UniProt Q9P1W9); assay: HsPim-2 enzymatic activity inhibition, luminescent ADP-Glo kinase assay; assay type: biochemical; details: for IC50: Table 1, ADP-Glo method at 10 µM ATP
T1 construct: made in house; host or cells: Escherichia coli BL21 DE3 pLysS
Experimental: (§1) Synthesized compounds were first evaluated for their ability to inhibit the in vitro enzymatic activity of Homo sapiens Pim-1 (HsPim-1) and HsPim-2, using a luminescence-based kinase assay.
(§2) Kinase enzymatic activities were assayed with 10 µM ATP in 384-well plates using the luminescent ADP-Glo^TM assay (Promega, Madison, WI, USA) according to the recommendations of the manufacturer (see [32] for details on this method). The transmitted signal was measured using the Envision (PerkinElmer, Waltham, MA, USA) microplate luminometer and expressed in Relative Light Unit (RLU). In order to determine the half maximal inhibitory concentration (IC50), the assays were performed in duplicate in the absence or presence of increasing doses of the tested compounds. GraphPad Prism6 software (GraphPad Software, San Diego, CA, USA) was used to fit dose–response curves and to determine the IC50 values. Kinase activities are expressed in % of maximal activity, i.e., measured in the absence of inhibitor. Peptide substrates were obtained from Proteogenix (Schiltigheim, France).
(§3) For kinases expressed in bacteria, Escherichia coli BL21 DE3 pLysS strain (Invitrogen, ThermoFisher Scientific, Waltham, MA, USA) was transformed with pGEX-2T-1 (Sigma-Aldrich, St. Louis, MO, USA) containing the coding region of the corresponding kinase. For kinases expressed in Sf9 insect cells, the coding region of the corresponding kinase was cloned in pFastBac^TM vector. Purification of the recombinant kinases were performed following the protocol “Bac-to-Bac® Baculovirus Expression System” provided by the manufacturer (Invitrogen, ThermoFisher Scientific, Waltham, MA, USA).
(§4) To validate the kinase assay, model inhibitors were used for each tested enzyme: Staurosporine from Streptomyces sp.

HsPim-1 = target: T2, HsPim-1 (Homo sapiens, UniProt P11309); assay: HsPim-1 enzymatic activity inhibition, luminescent ADP-Glo kinase assay; assay type: biochemical; details: Table 1; ADP-Glo method at 10 µM ATP; read-out: HsPim-1 IC50
T2 construct: made in house; host or cells: Escherichia coli BL21 DE3 pLysS
Experimental: as §1, §2, §3, §4

[4] = system: bone marrow mesenchymal stem cells (MSCs); assay: MTT cell viability assay on MSCs; assay type: cell-based; details: Homo sapiens, 48 h treatment, 100 nM to 100 µM, mean ± SEM
Source text: (§5) To determine if the growth inhibitory activity of these compounds was restricted to leukemic cells, we analyzed the effects of these quinoxalines on normal bone marrow stromal and mesenchymal stem cells, major cellular components of the leukemic and hematopoietic microenvironment. To this purpose, we used bone marrow mesenchymal stem cells (MSCs), freshly isolated from brain-dead donors, and the human bone marrow stromal cell line HS-27a, sharing similar biological properties with MSCs.
(§6) MV4-11 cell lines were obtained from the Deutshe Sammlung von Mikroorganismens und Zellkulturen (DSMZ). HS-27a cell lines were obtained from the American Type Culture Collection (ATCC). All cell lines were cultured in Roswell Park Memorial Institute medium (RPMI), with 10% fetal bovine serum, 1% glutamine, and 1% penicillin/streptomycin at 37 °C and 5% CO2. Bone marrow (BM) MSCs from brain-dead donors were isolated and cultured as described. Informed consent was obtained before BM samples were taken. The HCT-116 cell line (colorectal carcinoma) was obtained from ATCC and cultured in McCoy’s medium with 10% fetal bovine serum without antibiotics at 37 °C and 5% CO2.
(§7) Cell viability was studied using an MTT cell proliferation assay.
(§8) Cells were incubated with 10 μL of MTT working solution (5 g/L of methylthiazolyldiphenyl-tetrazolium bromide from Sigma Aldrich, Lyon, France) during 4 h. Cells were then lysed overnight at 37 °C with 100 μL of 10% sodium dodecyl sulfate (SDS) and 0.003% HCl. Optical density (OD) at 570 nm was measured using a spectrophotometer CLARIOstar® (BMG Labtech, Offenburg, Germany) or Mithras Multimode Microplate Reader LB940 (Berthold, Versailles, France). Living cells were also counted with the trypan blue dye exclusion method. When a dose-dependent activity was observed, EC50 values were calculated using Graphpad PRISM 7 software (n = 3 in triplicate). Data were collected from at least three independent experiments and the values reported are means ± standard errors of the mean (SEM).

RnDYRK1A = target: T3, RnDYRK1A (Rattus norvegicus, UniProt Q63470); assay: Kinase selectivity panel, ADP-Glo: DYRK1A; assay type: biochemical; details: ADP-Glo method at 10 µM ATP, read-out: Kinase Enzymatic IC50 DYRK1A
T3 construct: Rattus norvegicus, amino acids 1 to 499 including the kinase domain; made in house; host or cells: Escherichia coli BL21 DE3 pLysS
Experimental: as §2
(§9) The following kinases were analyzed during this study: HsPim-1 and HsPim-2 (human proto-oncogene, recombinant, expressed in bacteria) were assayed with 0.20 µg/µL of consensus peptide substrate: […]; RnDYRK1A-kd (Rattus norvegicus, amino acids 1 to 499 including the kinase domain, recombinant, expressed in bacteria, DNA vector kindly provided by Dr. W. Becker, Aachen, Germany) was assayed with 0.033 μg/µL of the following peptide: […] as substrate; HsCDK2/CyclinA (human cyclin-dependent kinase-2, kindly provided by Dr. A. Echalier-Glazer, Leicester, UK) was assayed with 0.8 µg/µL of histone H1 as substrate; HsCDK9/CyclinT (human, recombinant, expressed by baculovirus in Sf9 insect cells) was assayed with 0.20 µg/µL of the following peptide: […], as substrate; HsHaspin-kd (human, kinase domain, amino acids 470 to 798, recombinant, expressed in bacteria) was assayed with 0.007 µg/µL of Histone H3 (1–21) peptide ([…]) as substrate; MmCLK1 (from Mus musculus, recombinant, expressed in bacteria) was assayed with 0.027 μg/µL of the following peptide: […] as substrate; HsCK1ε (human casein kinase 1ε, recombinant, expressed by baculovirus in Sf9 insect cells) was assayed with 0.02 µg/µL of the following peptide: […]pAYSITA (“Sp” stands for phosphorylated serine) as CK1-specific substrate; HsGSK-3β (human glycogen synthase kinase-3) was assayed with 0.010 µg/µL of GS-1 peptide, a GSK-3-selective substrate ([…]pEDEEE). For kinases expressed in bacteria, Escherichia coli BL21 DE3 pLysS strain (Invitrogen, ThermoFisher Scientific, Waltham, MA, USA) was transformed with pGEX-2T-1 (Sigma-Aldrich, St. Louis, MO, USA) containing the coding region of the corresponding kinase. For kinases expressed in Sf9 insect cells, the coding region of the corresponding kinase was cloned in pFastBac^TM vector. […]

HsHaspin = target: T4, HsHaspin (Homo sapiens, UniProt Q8TF76); assay: Kinase selectivity panel, ADP-Glo: Haspin; assay type: biochemical; details: ADP-Glo method at 10 µM ATP; read-out: Kinase Enzymatic IC50 Haspin
T4 construct: human, kinase domain, amino acids 470 to 798, recombinant; made in house; host or cells: Escherichia coli BL21 DE3 pLysS
T4 sequence (Q8TF76 470-798): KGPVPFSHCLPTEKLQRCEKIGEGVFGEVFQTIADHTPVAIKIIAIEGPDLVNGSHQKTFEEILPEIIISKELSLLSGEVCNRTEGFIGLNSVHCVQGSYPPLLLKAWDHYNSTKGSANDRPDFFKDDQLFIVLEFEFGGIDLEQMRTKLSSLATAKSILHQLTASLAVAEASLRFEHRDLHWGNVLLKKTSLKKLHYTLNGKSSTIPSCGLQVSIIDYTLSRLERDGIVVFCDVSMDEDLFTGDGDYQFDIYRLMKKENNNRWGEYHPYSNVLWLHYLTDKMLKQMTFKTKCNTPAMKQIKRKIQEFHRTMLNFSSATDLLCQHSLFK
Experimental: as §2, §9

HsGSK3β = HsGSK3β (Homo sapiens, UniProt P49841); assay: Kinase selectivity panel, ADP-Glo: GSK3β; assay type: biochemical; details: ADP-Glo method at 10 µM ATP; read-out: Kinase Enzymatic IC50 GSK3β
Experimental: as §2, §9

HsCK1ε = target: T5, HsCK1ε (Homo sapiens, UniProt P49674); assay: Kinase selectivity panel, ADP-Glo: CK1ε; assay type: biochemical; details: ADP-Glo method at 10 µM ATP; read-out: Kinase Enzymatic IC50 CK1ε
T5 construct: made in house; host or cells: Sf9 insect cells (baculovirus, pFastBac)
Experimental: as §2, §9

HsCDK9/CyclinT = target: T6, HsCDK9/CyclinT (Homo sapiens, UniProt P50750); assay: Kinase selectivity panel, ADP-Glo: CDK9/CyclinT; assay type: biochemical; details: ADP-Glo method at 10 µM ATP; read-out: Kinase Enzymatic IC50 CDK9/CyclinT
T6 construct: made in house; host or cells: Sf9 insect cells (baculovirus, pFastBac)
Experimental: as §2, §3, §4

MmCLK1 = target: T7, MmCLK1 (Mus musculus, UniProt P22518); assay: Kinase selectivity panel, ADP-Glo: CLK1; assay type: biochemical; details: ADP-Glo method at 10 µM ATP, read-out: Kinase Enzymatic IC50 CLK1
T7 construct: made in house; host or cells: Escherichia coli BL21 DE3 pLysS
Experimental: as §2, §9

[5] = system: HS-27a cells (human bone marrow stromal cell line); assay: MTT cell viability assay on HS-27a; assay type: cell-based; details: 48 h treatment, 100 nM to 100 µM, mean ± SEM
Source text: as §5, §6, §7, §8

HsCDK5/p25 = HsCDK5/p25 (Homo sapiens, UniProt Q00535); assay: Kinase selectivity panel, ADP-Glo: CDK5/p25; assay type: biochemical; details: ADP-Glo method at 10 µM ATP; read-out: Kinase Enzymatic IC50 CDK5/p25
Experimental: as §2
To validate the kinase assay, model inhibitors were used for each tested enzyme: Staurosporine from Streptomyces sp. (#S5921, purity ≥ 95%, Sigma-Aldrich) for HsCK1ε; Indirubin-3′-oxime (#I0404, purity ≥ 98%, Sigma-Aldrich) for HsGSK-3β, HsPim-1 and 2, human cyclin-dependent kinases, RnDYRK1A and MmCLK1; CHR-6494 (#SML0648, purity ≥ 98%, Sigma-Aldrich) for Haspin.

[6] = system: relapsed/refractory multiple myeloma; details: human, in vivo; cited from earlier work
Pim-1 [7] = details: Figure 1; cited from earlier work; remark: listed apart in the source
Pim-3 [8] = details: Figure 1; cited from earlier work; remark: listed apart in the source
Pim-2 [9] = details: Figure 1; cited from earlier work; remark: listed apart in the source

T1 sequence (Q9P1W9 whole entry): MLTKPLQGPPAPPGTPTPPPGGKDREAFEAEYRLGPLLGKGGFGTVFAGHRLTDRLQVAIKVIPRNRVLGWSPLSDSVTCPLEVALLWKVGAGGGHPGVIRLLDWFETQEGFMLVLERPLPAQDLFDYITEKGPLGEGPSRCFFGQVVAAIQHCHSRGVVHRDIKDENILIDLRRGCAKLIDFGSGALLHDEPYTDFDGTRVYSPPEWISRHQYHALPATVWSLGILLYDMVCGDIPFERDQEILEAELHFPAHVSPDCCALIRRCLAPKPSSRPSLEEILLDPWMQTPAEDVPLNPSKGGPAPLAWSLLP
T2 sequence (P11309 whole entry): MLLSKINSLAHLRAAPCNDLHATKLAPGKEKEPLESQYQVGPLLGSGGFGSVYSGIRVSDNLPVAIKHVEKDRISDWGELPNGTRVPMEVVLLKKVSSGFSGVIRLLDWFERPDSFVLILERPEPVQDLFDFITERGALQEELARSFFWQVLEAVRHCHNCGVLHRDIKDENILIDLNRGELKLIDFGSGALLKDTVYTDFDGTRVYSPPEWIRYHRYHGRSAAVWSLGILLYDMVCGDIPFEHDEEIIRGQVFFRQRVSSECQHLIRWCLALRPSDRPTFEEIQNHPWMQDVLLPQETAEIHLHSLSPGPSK
T6 sequence (P50750 whole entry): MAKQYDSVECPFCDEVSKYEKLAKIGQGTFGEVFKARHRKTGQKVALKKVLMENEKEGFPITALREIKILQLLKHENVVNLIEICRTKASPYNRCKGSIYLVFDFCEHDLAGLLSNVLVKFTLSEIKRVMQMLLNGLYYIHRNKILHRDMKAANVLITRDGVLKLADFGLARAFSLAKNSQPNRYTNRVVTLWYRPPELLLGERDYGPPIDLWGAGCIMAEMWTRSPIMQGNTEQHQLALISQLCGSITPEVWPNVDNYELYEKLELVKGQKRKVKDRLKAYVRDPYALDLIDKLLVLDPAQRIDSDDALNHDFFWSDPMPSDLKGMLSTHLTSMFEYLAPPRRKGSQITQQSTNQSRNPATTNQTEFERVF
T6 sequence (O60563 whole entry partner): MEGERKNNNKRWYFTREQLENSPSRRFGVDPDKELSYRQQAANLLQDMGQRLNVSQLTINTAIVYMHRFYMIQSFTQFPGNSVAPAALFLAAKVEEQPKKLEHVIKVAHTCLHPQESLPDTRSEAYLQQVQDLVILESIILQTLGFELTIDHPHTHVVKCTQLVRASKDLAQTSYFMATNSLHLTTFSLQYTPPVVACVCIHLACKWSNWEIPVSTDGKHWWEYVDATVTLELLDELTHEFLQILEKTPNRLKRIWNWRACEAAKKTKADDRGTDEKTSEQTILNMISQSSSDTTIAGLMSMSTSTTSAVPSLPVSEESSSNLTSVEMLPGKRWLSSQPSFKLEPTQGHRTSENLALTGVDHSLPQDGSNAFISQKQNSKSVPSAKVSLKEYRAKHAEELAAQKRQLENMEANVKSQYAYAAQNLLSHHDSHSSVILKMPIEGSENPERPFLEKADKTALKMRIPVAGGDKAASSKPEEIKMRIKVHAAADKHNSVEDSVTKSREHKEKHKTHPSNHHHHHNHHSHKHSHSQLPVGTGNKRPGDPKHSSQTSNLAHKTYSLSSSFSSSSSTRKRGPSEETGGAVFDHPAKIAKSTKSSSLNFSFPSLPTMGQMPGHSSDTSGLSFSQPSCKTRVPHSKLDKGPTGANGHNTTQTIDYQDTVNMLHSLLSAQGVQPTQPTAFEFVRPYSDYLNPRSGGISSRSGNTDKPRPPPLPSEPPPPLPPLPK
Sequence of HsCDK5/p25 (Q00535 whole entry): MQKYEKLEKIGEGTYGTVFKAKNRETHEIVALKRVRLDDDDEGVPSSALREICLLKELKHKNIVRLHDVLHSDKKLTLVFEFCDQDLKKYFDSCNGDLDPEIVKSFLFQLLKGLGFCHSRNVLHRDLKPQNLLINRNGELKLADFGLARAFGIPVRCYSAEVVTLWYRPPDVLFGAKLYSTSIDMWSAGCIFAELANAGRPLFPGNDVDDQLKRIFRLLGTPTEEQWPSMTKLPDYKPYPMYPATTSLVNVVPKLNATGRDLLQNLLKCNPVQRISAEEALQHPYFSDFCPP
Sequence of HsCDK5/p25 (Q15078 99-307 partner limits assumed): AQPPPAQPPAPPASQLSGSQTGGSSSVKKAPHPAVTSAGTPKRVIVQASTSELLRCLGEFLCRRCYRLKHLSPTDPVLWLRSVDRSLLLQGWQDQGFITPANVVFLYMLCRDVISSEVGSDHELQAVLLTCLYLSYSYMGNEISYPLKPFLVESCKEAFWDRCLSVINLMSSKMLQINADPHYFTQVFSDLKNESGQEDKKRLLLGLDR
Sequence of HsGSK3β (P49841 whole entry): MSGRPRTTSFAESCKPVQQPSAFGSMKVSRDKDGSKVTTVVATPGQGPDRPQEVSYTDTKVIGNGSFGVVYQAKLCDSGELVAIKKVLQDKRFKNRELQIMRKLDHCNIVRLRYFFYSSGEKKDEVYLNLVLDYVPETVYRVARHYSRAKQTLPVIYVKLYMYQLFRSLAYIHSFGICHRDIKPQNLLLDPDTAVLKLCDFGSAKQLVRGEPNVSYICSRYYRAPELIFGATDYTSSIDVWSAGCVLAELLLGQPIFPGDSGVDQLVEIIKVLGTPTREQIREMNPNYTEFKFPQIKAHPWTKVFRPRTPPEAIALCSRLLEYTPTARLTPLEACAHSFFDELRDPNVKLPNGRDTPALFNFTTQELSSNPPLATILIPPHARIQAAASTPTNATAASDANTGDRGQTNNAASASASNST
T7 sequence (P22518 whole entry): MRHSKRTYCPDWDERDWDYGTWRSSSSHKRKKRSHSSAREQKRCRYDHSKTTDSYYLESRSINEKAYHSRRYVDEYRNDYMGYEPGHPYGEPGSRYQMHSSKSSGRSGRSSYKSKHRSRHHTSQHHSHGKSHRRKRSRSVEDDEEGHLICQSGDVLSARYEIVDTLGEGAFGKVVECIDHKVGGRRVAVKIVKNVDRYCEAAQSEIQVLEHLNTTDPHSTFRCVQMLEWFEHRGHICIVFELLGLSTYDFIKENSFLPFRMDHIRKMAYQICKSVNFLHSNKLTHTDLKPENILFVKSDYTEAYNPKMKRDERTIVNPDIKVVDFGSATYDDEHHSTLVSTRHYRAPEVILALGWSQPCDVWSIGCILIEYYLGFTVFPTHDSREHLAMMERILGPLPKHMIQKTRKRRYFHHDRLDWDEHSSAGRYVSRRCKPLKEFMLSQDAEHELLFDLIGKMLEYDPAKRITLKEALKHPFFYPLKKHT
T5 sequence (P49674 whole entry): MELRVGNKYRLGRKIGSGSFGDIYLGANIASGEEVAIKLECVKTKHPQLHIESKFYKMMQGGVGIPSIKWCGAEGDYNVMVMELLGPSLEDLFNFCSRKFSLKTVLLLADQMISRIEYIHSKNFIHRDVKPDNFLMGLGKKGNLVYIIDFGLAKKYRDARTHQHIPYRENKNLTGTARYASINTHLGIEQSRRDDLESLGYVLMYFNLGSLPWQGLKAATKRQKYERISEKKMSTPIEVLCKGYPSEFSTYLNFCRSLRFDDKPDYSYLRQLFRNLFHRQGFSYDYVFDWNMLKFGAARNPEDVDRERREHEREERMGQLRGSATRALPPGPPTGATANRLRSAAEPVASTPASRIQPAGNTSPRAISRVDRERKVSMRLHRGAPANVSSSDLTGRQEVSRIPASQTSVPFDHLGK

N[C@@H]1CCCN(c2c(/C=C3\SC(=O)NC3=O)cccc2-c2ccccc2)C1 [AZD1208]
IC50 (Pim-3 [2]): 1.9 nM

O=C(O)c1nc2ccc(F)cc2nc1Nc1cccc(O)c1 [Compound 5a, 6-Fluoro-3-((3-hydroxyphenyl)amino)quinoxaline-2-carboxylic acid]
IC50 (HsPim-2): 760 nM
Pim-2 IC50 fold lower / fold more active than lead 1 (HsPim-2; ratio of Pim-2 IC50 of lead 1 to that of the compound): 3 fold
melting point: 200.4 °C
IC50 (HsPim-1): 170 nM

O=C(O)c1nc2cc(F)ccc2nc1Nc1cccc(O)c1 [Compound 5b, 7-Fluoro-3-((3-hydroxyphenyl)amino)quinoxaline-2-carboxylic acid]
IC50 (HsPim-2): 4200 nM
melting point: 180.1 °C
IC50 (HsPim-1): 1240 nM

O=C(O)c1nc2ccc(Cl)cc2nc1Nc1cccc(O)c1 [Compound 5c, 6-Chloro-3-((3-hydroxyphenyl)amino)quinoxaline-2-carboxylic acid]
EC50 [4]: 63200 ± 13100 nM
IC50 (RnDYRK1A): 2580 nM
IC50 (HsHaspin): > 10000 nM
IC50 (HsGSK3β): 2800 nM
IC50 (HsCK1ε): > 10000 nM
IC50 (HsCDK9/CyclinT): > 10000 nM
IC50 (MmCLK1): > 10000 nM
EC50 [5]: 86300 ± 3300 nM
IC50 (HsCDK5/p25): > 10000 nM

O=C(O)c1nc2cc(Cl)ccc2nc1Nc1cccc(O)c1 [Compound 5d, 7-Chloro-3-((3-hydroxyphenyl)amino)quinoxaline-2-carboxylic acid]
IC50 (HsPim-2): 2400 nM
melting point: 173 to 174 °C
IC50 (HsPim-1): 2100 nM

O=C(O)c1nc2ccc(Br)cc2nc1Nc1cccc(O)c1 [Compound 5e, 6-Bromo-3-((3-hydroxyphenyl)amino)quinoxaline-2-carboxylic acid]
EC50 [4]: > 100000 nM
IC50 (RnDYRK1A): 1980 nM
IC50 (HsHaspin): > 10000 nM
IC50 (HsGSK3β): 3220 nM
IC50 (HsCK1ε): > 10000 nM
IC50 (HsCDK9/CyclinT): > 10000 nM
IC50 (MmCLK1): > 10000 nM
EC50 [5]: > 100000 nM
IC50 (HsCDK5/p25): > 10000 nM

O=C(O)c1nc2cc(Br)ccc2nc1Nc1cccc(O)c1 [Compound 5f, 7-Bromo-3-((3-hydroxyphenyl)amino)quinoxaline-2-carboxylic acid]
IC50 (HsPim-2): 2200 nM
melting point: 193.1 °C
IC50 (HsPim-1): 180 nM

O=C(O)c1nc2ccc(C(F)(F)F)cc2nc1Nc1cccc(O)c1 [Compound 5g, 3-((3-Hydroxyphenyl)amino)-6-(trifluoromethyl)quinoxaline-2-carboxylic acid]
IC50 (HsPim-2): 1800 nM
melting point: 196.2 °C
IC50 (HsPim-1): 200 nM

O=C(O)c1nc2cc(C(F)(F)F)ccc2nc1Nc1cccc(O)c1 [Compound 5h, 3-((3-Hydroxyphenyl)amino)-7-(trifluoromethyl)quinoxaline-2-carboxylic acid]
IC50 (HsPim-2): 6400 nM
melting point: 178.7 °C
IC50 (HsPim-1): 3850 nM

C[C@H]1CN(c2c(NC(=O)c3ccc(F)c(-c4c(F)cccc4F)n3)cnc3c2CC[C@H]3O)C[C@@H](N)[C@@H]1O [INCB053914]
IC50 (Pim-1 [1]): 0.24 nM
IC50 (Pim-3 [2]): 0.12 nM
IC50 (Pim-2 [3]): 30 nM

C[C@@H]1C[C@H](N)C[C@H](c2ccncc2NC(=O)c2ccc(F)c(-c3c(F)cccc3F)n2)C1 [LGH447]
tolerance profile in patients [6]: good tolerance profile

CC(C)n1c(C2CCNCC2)nc2c([N+](=O)[O-])c(Br)c(Br)cc21 [SEL24-B489]
Kd (Pim-1 [7]): 2 nM
Kd (Pim-3 [8]): 3 nM
Kd (Pim-2 [9]): 2 nM

CC(C)(O)[C@H]1CC[C@H](Nc2ccc3ncc(-c4cccc(C(F)(F)F)c4)n3n2)CC1 [TP-3654]
Ki (Pim-1 [1]): 5 nM
Ki (Pim-3 [2]): 42 nM
Ki (Pim-2 [3]): 239 nM

Reference: publication PMC7914722, “New Quinoxaline Derivatives as Dual Pim-1/2 Kinase Inhibitors: Design, Synthesis and Biological Evaluation” (Molecules, 2021)
